Results on 5 compounds are retold here after the NIST ThermoML archive (doi:10.1007/s10765-013-1404-4).

Numbers after ± are expanded uncertainties.

Series [1] is described as follows: Molar enthalpy of transition or fusion. The note with it: Crystal; DSC.
The conditions of series [2]: Crystal; DTA.

On to `CCN(C(=O)N(CC)c1ccccc1)c1ccccc1` [1,3-diethyl-1,3-diphenylurea], for which the “Molar enthalpy of transition or fusion” value in series [1] was 8.02 ± 0.454 kcal/mol. Moreover, in series [2], the Normal melting temperature is 71.87 ± 0.41 °C.
The corresponding values for `O=[N+]([O-])c1ccccc1Nc1ccccc1` [2-nitrodiphenylamine] are 6.25 ± 0.454 kcal/mol and 74.79 ± 0.41 °C.
The corresponding values for `CCN(N=O)c1ccc([N+](=O)[O-])cc1` [N-nitroso-N-ethyl-4-nitroaniline] are 7.45 ± 0.454 kcal/mol and 118.60 ± 0.41 °C.
The corresponding values for `O=[N+]([O-])c1ccccc1Nc1ccccc1[N+](=O)[O-]` [bis(2-nitrophenyl)amine] are 4.39 ± 0.454 kcal/mol and 172.30 ± 0.41 °C.
With `c1ccc(Nc2ccccc2)cc1` [diphenylamine], the “Molar enthalpy of transition or fusion” value in series [1] was found to be 4.7 ± 0.454 kcal/mol. Moreover, the Normal melting temperature in series [2] amounted to 53.50 ± 0.41 °C.
